From publication PMC3062741 (Behavioural brain research, 2011)

System: Male Sprague-Dawley rats
Experiment: Locomotor activity
Type: in vivo, rat
Conditions: for Locomotor Activity Day 1, mean distance traveled: 60-min session

## COC(=O)C(c1ccccc1)C1CCCCN1 (stereo not drawn) [MPD, Methylphenidate]
Day 1, EC rats, MPD 3 mg/kg
  time course of locomotor activity compared to saline-treated rats: significantly greater during the 25–60-min intervals
Day 1, EC rats, MPD 10 mg/kg
  time course of locomotor activity compared to saline-treated rats: significantly greater during the 20–60-min intervals
Day 1, IC rats, MPD 3 mg/kg
  time course of locomotor activity compared to saline-treated rats: significantly greater during the 30-, 50- and 60-min intervals
Day 1, IC rats, MPD 10 mg/kg
  time course of locomotor activity compared to saline-treated rats: significantly greater during the 15–60-min intervals
Day 1, SC rats, MPD 3 mg/kg
  time course of locomotor activity compared to saline-treated rats: more active than saline-treated SC rats during the 30–60-min time intervals
Day 1, SC rats, MPD 10 mg/kg
  time course of locomotor activity compared to saline-treated rats: more active than saline-treated SC rats during the 15–60-min time intervals
Day 10, EC rats, MPD 3 mg/kg
  time course of locomotor activity compared to saline-treated rats: only IC rats treated with 3 mg/kg of MPD displayed greater activity
Day 10, EC rats, MPD 10 mg/kg
  time course of locomotor activity compared to saline-treated rats: more active than the saline controls during each time interval
Day 10, IC rats, MPD 3 mg/kg
  time course of locomotor activity compared to saline-treated rats: significantly greater activity in IC rats relative to saline controls beginning at the 30-min time interval
Day 10, IC rats, MPD 10 mg/kg
  time course of locomotor activity compared to saline-treated rats: more active than the saline controls during each time interval except the 5-min interval in the IC group
Day 10, SC rats, MPD 3 mg/kg
  time course of locomotor activity compared to saline-treated rats: more active than saline-treated SC rats during the 10–60-min time intervals
Day 10, SC rats, MPD 10 mg/kg
  time course of locomotor activity compared to saline-treated rats: more active than saline-treated SC rats during the 10–60-min time intervals
EC rats, MPD 3 mg/kg once daily
  total locomotor activity across Days 1–10 compared with Day 1: greater locomotor activity on Day 2 than on Day 1
EC rats, MPD 3 mg/kg s.c. once daily
  Locomotor Activity Day 10, mean distance traveled: 4438 cm
EC rats, MPD 3 mg/kg s.c.
  Locomotor Activity Day 1, mean distance traveled: 9482 cm
EC rats, MPD 10 mg/kg once daily
  total locomotor activity across Days 1–10 compared with Day 1: greater locomotor activity on Days 4, 5 and 10 than on Day 1
EC rats, MPD 10 mg/kg s.c. once daily
  Locomotor Activity Day 10, mean distance traveled: 29196 cm
EC rats, MPD 10 mg/kg s.c.
  Locomotor Activity Day 1, mean distance traveled: 15665 cm
IC rats, MPD 3 mg/kg once daily
  total locomotor activity across Days 1–10 compared with Day 1: greater locomotor activity on Days 2–9 than on Day 1
IC rats, MPD 3 mg/kg s.c. once daily
  Locomotor Activity Day 10, mean distance traveled: 13980 cm
IC rats, MPD 3 mg/kg s.c.
  Locomotor Activity Day 1, mean distance traveled: 9775 cm
IC rats, MPD 10 mg/kg once daily
  total locomotor activity across Days 1–10 compared with Day 1: no significant main effect of Day
IC rats, MPD 10 mg/kg s.c. once daily
  Locomotor Activity Day 10, mean distance traveled: 28531 cm
IC rats, MPD 10 mg/kg s.c.
  Locomotor Activity Day 1, mean distance traveled: 20653 cm
SC rats, MPD 3 mg/kg once daily
  total locomotor activity across Days 1–10 compared with Day 1: activity on Days 2–10 was greater than activity on Day 1
SC rats, MPD 3 mg/kg s.c. once daily
  Locomotor Activity Day 10, mean distance traveled: 23675 cm
SC rats, MPD 3 mg/kg s.c.
  Locomotor Activity Day 1, mean distance traveled: 15020 cm
SC rats, MPD 10 mg/kg once daily
  total locomotor activity across Days 1–10 compared with Day 1: locomotor activity on Days 3, 5–7 and 10 was greater than that on Day 1
SC rats, MPD 10 mg/kg s.c. once daily
  Locomotor Activity Day 10, mean distance traveled: 31954 cm
SC rats, MPD 10 mg/kg s.c.
  Locomotor Activity Day 1, mean distance traveled: 22406 cm
